Results reported in patent publication US20150291610A1, “C20' Urea Derivatives of Vinca Alkaloids” (THE SCRIPPS RESEARCH INSTITUTE, priority 2012, published 2015).
Where two headings read alike, the source gives them in different places.

How the values were obtained:
[1] = system: HCT116 (human colorectal carcinoma) cells; assay: Cell growth inhibition assay, HCT116; format: cell-based; details: for fold more potent than vinblastine, HCT116: relative to vinblastine
Protocol: (§1) A population of cells (>1×10^6 cells/mL as determined with a hemocytometer) was diluted with an appropriate amount of Dulbecco-modified Eagle Medium (DMEM, Gibco) containing 10% fetal bovine serum (FBS, Gibco) to a final concentration of 30,000 cells/mL.
(§2) To each well of a 96-well plate (Corning Costar), 100 μL of the cell-media solution was added with a multichannel pipette. The cultures were incubated at 37° C. in an atmosphere of 5% CO2 and 95% humidified air for 24 hours. The test compounds were added to the plate as follows: test substances were diluted in DMSO to a concentration of 1 mM and 10-fold serial dilutions were performed on a separate 96-well plate. Fresh culture medium (100 μL) was added to each well of cells to constitute 200 μL of medium per well followed by 2 μL of each test agent. Compounds were tested in duplicate (n=2-8 times) at six concentrations between 0-1,000 nM or 0-10,000 nM. Following addition, cultures were incubated for an additional 72 hours.
(§3) The plates were incubated at 37° C. for either 5 minutes (L1210) or 15 minutes (HCT116 and HCT116/VM46).

[2] = system: HCT116/VM46 (vinblastine-resistant strain of HCT116, Pgp over-expression) cells; assay: Cell growth inhibition assay, HCT116/VM46; details: for IC50: read-out: IC50 (nM) HCT116/VM46, resistant human colon cancer cell line, Pgp over-expression; for fold improvement over vinblastine, HCT116/VM46: relative to vinblastine
Protocol: as §1, §2, §3

[3] = system: L1210 (mouse lymphocytic leukemia) cells; assay: Cell growth inhibition assay, L1210; format: cell-based; details: L1210 murine leukemia cell line; avg of 4-16 determinations
Protocol: as §1, §2, §3

[4] = HCT116 human colon cancer cell line, avg of 4-16 determinations, read-out: IC50 (nM) HCT116
[5] = text values in pM, read-out: IC50 HCT116

SMILES	IC50 [1, 4]	IC50 [2]	IC50 [3]	also measured
CC[C@]1(NC(=O)N2CCN(C)CC2)C[C@@H]2CN(CCc3c([nH]c4ccccc34)[C@@](C(=O)OC)(c3cc4c(cc3OC)N(C)[C@H]3[C@@](O)(C(=O)OC)[C@H](OC(C)=O)[C@]5(CC)C=CCN6CC[C@]43[C@@H]65)C2)C1 [Compound 54]	3.4 nM	710 nM	7.7 nM	–
CC[C@]12C=CCN3CC[C@@]4(c5cc([C@@]6(C(=O)OC)C[C@H]7CN(CCc8c6[nH]c6ccccc86)C[C@@](CC)(N(C)C)C7)c(OC)cc5N(C)[C@H]4[C@@](O)(C(=O)OC)[C@@H]1OC(C)=O)[C@@H]32 [Compound 46]	980 nM	> 10000 nM	–	–
CC[C@]1(NC(=O)Nc2ccc(F)cc2)C[C@@H]2CN(CCc3c([nH]c4ccccc34)[C@@](C(=O)OC)(c3cc4c(cc3OC)N(C)[C@H]3[C@@](O)(C(=O)OC)[C@H](OC(C)=O)[C@]5(CC)C=CCN6CC[C@]43[C@@H]65)C2)C1 [Compound 24]	3.9 nM	400 nM	5.7 nM	–
CC[C@]1(NC(=O)NC(C)(C)C)C[C@@H]2CN(CCc3c([nH]c4ccccc34)[C@@](C(=O)OC)(c3cc4c(cc3OC)N(C)[C@H]3[C@@](O)(C(=O)OC)[C@H](OC(C)=O)[C@]5(CC)C=CCN6CC[C@]43[C@@H]65)C2)C1 [Compound 20]	20 nM	670 nM	40 nM	–
CC[C@]1(NC(=O)Oc2ccc([N+](=O)[O-])cc2)C[C@@H]2CN(CCc3c([nH]c4ccccc34)[C@@](C(=O)OC)(c3cc4c(cc3OC)N(C)[C@H]3[C@@](O)(C(=O)OC)[C@H](OC(C)=O)[C@]5(CC)C=CCN6CC[C@]43[C@@H]65)C2)C1 [Compound 13]	55 nM	–	–	–
CC[C@]1(NC(=O)Nc2ccc(C(F)(F)F)cc2)C[C@@H]2CN(CCc3c([nH]c4ccccc34)[C@@](C(=O)OC)(c3cc4c(cc3OC)N(C)[C@H]3[C@@](O)(C(=O)OC)[C@H](OC(C)=O)[C@]5(CC)C=CCN6CC[C@]43[C@@H]65)C2)C1 [Compound 27]	7.1 nM	610 nM	7.3 nM	–
CC[C@]1(NC(=O)N2CCSCC2)C[C@@H]2CN(CCc3c([nH]c4ccccc34)[C@@](C(=O)OC)(c3cc4c(cc3OC)N(C)[C@H]3[C@@](O)(C(=O)OC)[C@H](OC(C)=O)[C@]5(CC)C=CCN6CC[C@]43[C@@H]65)C2)C1 [Compound 53]	0.88 nM	50 nM	2.1 nM	–
CCC1(NC(=S)Nc2ccccc2)CC2CN(CCc3c([nH]c4ccccc34)C(C(=O)OC)(c3cc4c(cc3OC)N(C)C3C(O)(C(=O)OC)C(OC(C)=O)C5(CC)C=CCN6CCC43C65)C2)C1 (centres unmarked) [Compound 37]	40 nM	650 nM	–	–
CC[C@]1(NC(=O)Nc2ccccc2OC)C[C@@H]2CN(CCc3c([nH]c4ccccc34)[C@@](C(=O)OC)(c3cc4c(cc3OC)N(C)[C@H]3[C@@](O)(C(=O)OC)[C@H](OC(C)=O)[C@]5(CC)C=CCN6CC[C@]43[C@@H]65)C2)C1 [Compound 30]	–	65 nM	4.8 nM	fold more potent than vinblastine, HCT116 [1]: ~10 fold; IC50 [1, 5]: 0.77 nM; fold improvement over vinblastine, HCT116/VM46 [2]: 10 fold
CC[C@]1(NC(=O)Nc2ccccc2)C[C@@H]2CN(CCc3c([nH]c4ccccc34)[C@@](C(=O)OC)(c3cc4c(cc3OC)N(C)[C@H]3[C@@](O)(C(=O)OC)[C@H](OC(C)=O)[C@]5(CC)C=CCN6CC[C@]43[C@@H]65)C2)C1 [Compound 23]	5.1 nM	390 nM	6.5 nM	–
CCN(CC)C(=O)N[C@@]1(CC)C[C@@H]2CN(CCc3c([nH]c4ccccc34)[C@@](C(=O)OC)(c3cc4c(cc3OC)N(C)[C@H]3[C@@](O)(C(=O)OC)[C@H](OC(C)=O)[C@]5(CC)C=CCN6CC[C@]43[C@@H]65)C2)C1 [Compound 40]	6.7 nM	450 nM	–	–
CCNC(=O)NC1(CC)CC2CN(CCc3c([nH]c4ccc(F)cc34)C(C(=O)OC)(c3cc4c(cc3OC)N(C)C3C(O)(C(=O)OC)C(OC(C)=O)C5(CC)C=CCN6CCC43C65)C2)C1 (centres unmarked) [Compound 49]	–	70 nM	–	fold more potent than vinblastine, HCT116 [1]: at least 10 fold; IC50 [1, 5]: 0.62 nM; fold improvement over vinblastine, HCT116/VM46 [2]: ~10 fold
CC[C@]1(NC(=O)NCc2ccco2)C[C@@H]2CN(CCc3c([nH]c4ccccc34)[C@@](C(=O)OC)(c3cc4c(cc3OC)N(C)[C@H]3[C@@](O)(C(=O)OC)[C@H](OC(C)=O)[C@]5(CC)C=CCN6CC[C@]43[C@@H]65)C2)C1 [Compound 34]	5.1 nM	530 nM	5.4 nM	–
CC[C@]1(NC(=O)NC(C)C)C[C@@H]2CN(CCc3c([nH]c4ccccc34)[C@@](C(=O)OC)(c3cc4c(cc3OC)N(C)[C@H]3[C@@](O)(C(=O)OC)[C@H](OC(C)=O)[C@]5(CC)C=CCN6CC[C@]43[C@@H]65)C2)C1 [Compound 17]	5.7 nM	430 nM	5.5 nM	–
CC[C@]1(NC(=O)Nc2ccc(Cl)cc2)C[C@@H]2CN(CCc3c([nH]c4ccccc34)[C@@](C(=O)OC)(c3cc4c(cc3OC)N(C)[C@H]3[C@@](O)(C(=O)OC)[C@H](OC(C)=O)[C@]5(CC)C=CCN6CC[C@]43[C@@H]65)C2)C1 [Compound 25]	6.7 nM	590 nM	6.2 nM	–
CCNC(=O)N[C@@]1(CC)C[C@@H]2CN(CCc3c([nH]c4ccccc34)[C@@](C(=O)OC)(c3cc4c(cc3OC)N(C)[C@H]3[C@@](O)(C(=O)OC)[C@H](OC(C)=O)[C@]5(CC)C=CCN6CC[C@]43[C@@H]65)C2)C1 [Compound 15]	0.73 nM	90 nM	2.1 nM	fold improvement over vinblastine, HCT116/VM46 [2]: 10 fold
CC[C@]1(NC(=O)NC2CCCCC2)C[C@@H]2CN(CCc3c([nH]c4ccccc34)[C@@](C(=O)OC)(c3cc4c(cc3OC)N(C)[C@H]3[C@@](O)(C(=O)OC)[C@H](OC(C)=O)[C@]5(CC)C=CCN6CC[C@]43[C@@H]65)C2)C1 [Compound 21]	5.4 nM	450 nM	5.8 nM	–
CCCNC(=O)N[C@@]1(CC)C[C@@H]2CN(CCc3c([nH]c4ccccc34)[C@@](C(=O)OC)(c3cc4c(cc3OC)N(C)[C@H]3[C@@](O)(C(=O)OC)[C@H](OC(C)=O)[C@]5(CC)C=CCN6CC[C@]43[C@@H]65)C2)C1 [Compound 16]	2.7 nM	221 nM	6 nM	–
CCC1(NC(=S)N(C)C)CC2CN(CCc3c([nH]c4ccccc34)C(C(=O)OC)(c3cc4c(cc3OC)N(C)C3C(O)(C(=O)OC)C(OC(C)=O)C5(CC)C=CCN6CCC43C65)C2)C1 (centres unmarked) [Compound 43]	8.7 nM	250 nM	–	activity difference between sensitive HCT116 and vinblastine-resistant HCT116/VM46 ([2]; HCT116/VM46 vs HCT116): 10 fold
CC[C@]1(NC(=O)Nc2ccc(C)cc2)C[C@@H]2CN(CCc3c([nH]c4ccccc34)[C@@](C(=O)OC)(c3cc4c(cc3OC)N(C)[C@H]3[C@@](O)(C(=O)OC)[C@H](OC(C)=O)[C@]5(CC)C=CCN6CC[C@]43[C@@H]65)C2)C1 [Compound 26]	4.8 nM	330 nM	4.5 nM	–
CC[C@]1(NC(=S)NCCc2ccc(F)cc2)C[C@@H]2CN(CCc3c([nH]c4ccccc34)[C@@](C(=O)OC)(c3cc4c(cc3OC)N(C)[C@H]3[C@@](O)(C(=O)OC)[C@H](OC(C)=O)[C@]5(CC)C=CCN6CC[C@]43[C@@H]65)C2)C1 [Compound 38]	60 nM	750 nM	–	–
CCC1(NC(=O)Nc2ccc(OC)cc2)CC2CN(CCc3c([nH]c4ccccc34)C(C(=O)OC)(c3cc4c(cc3OC)N(C)C3C(O)(C(=O)OC)C(OC(C)=O)C5(CC)C=CCN6CCC43C65)C2)C1 (centres unmarked) [Compound 28]	2 nM	230 nM	4.9 nM	–
CC[C@]1(NC(=O)N2CCOCC2)C[C@@H]2CN(CCc3c([nH]c4ccccc34)[C@@](C(=O)OC)(c3cc4c(cc3OC)N(C)[C@H]3[C@@](O)(C(=O)OC)[C@H](OC(C)=O)[C@]5(CC)C=CCN6CC[C@]43[C@@H]65)C2)C1 [Compound 41]	4.5 nM	360 nM	5.3 nM	–
CC[C@]1(NC)C[C@@H]2CN(CCc3c([nH]c4ccccc34)[C@@](C(=O)OC)(c3cc4c(cc3OC)N(C)[C@H]3[C@@](O)(C(=O)OC)[C@H](OC(C)=O)[C@]5(CC)C=CCN6CC[C@]43[C@@H]65)C2)C1 [Compound 45, 20′-(methylamino)vinblastine]	60 nM	8500 nM	–	–
CCNC(=O)N(C)[C@@]1(CC)C[C@@H]2CN(CCc3c([nH]c4ccccc34)[C@@](C(=O)OC)(c3cc4c(cc3OC)N(C)[C@H]3[C@@](O)(C(=O)OC)[C@H](OC(C)=O)[C@]5(CC)C=CCN6CC[C@]43[C@@H]65)C2)C1 [Compound 47]	520 nM	8500 nM	–	fold decrease in activity between 15 and 47 ([1]; HCT116): 700 fold
CC[C@]1(NC(=S)NC2CCCCC2)C[C@@H]2CN(CCc3c([nH]c4ccccc34)[C@@](C(=O)OC)(c3cc4c(cc3OC)N(C)[C@H]3[C@@](O)(C(=O)OC)[C@H](OC(C)=O)[C@]5(CC)C=CCN6CC[C@]43[C@@H]65)C2)C1 [Compound 36]	20 nM	520 nM	–	–
CCC1(OC(=O)N(C)C)CC2CN(CCc3c([nH]c4ccccc34)C(C(=O)OC)(c3cc4c(cc3OC)N(C)C3C(O)(C(=O)OC)C(OC(C)=O)C5(CC)C=CCN6CCC43C65)C2)C1 (centres unmarked) [Compound 44]	4700 nM	9100 nM	–	fold less active than N,N-dimethyl urea or thiourea 39 and 43 ([1]; HCT116): > 1000 fold
